# Assay results reported in patent publication US20040167459A1, “Methods and systems for controlling and/or increasing iontophoretic flux” (priority 2003, published 2004).
# Read-outs that look alike come from different tables or passages of the source.
# How the values were obtained:
# [1] = HEM; for Transference number: 0.5 mA DC
# Method: (§1) FIG. 1 schematically depicts the setup employed to carry out human epidermal membrane (HEM) iontophoretic experiments described below. Scleral experiments were conducted using a simple side-by-side diffusion apparatus known to one of ordinary skill in the art. Conductive silver paint was purchased from Ladd Research Technologies (Williston, Vt.) and silver foil from EM-Science (Gibbstown, N.J.). Silver chloride powder, phosphate buffered saline (PBS, pH 7.4) tablets were purchased from Sigma (St. Louis, Mo.). ^14C-sodium salicylate was purchased from ARC (St. Louis, Mo.) and non-radiolabeled sodium salicylate from Sigma. Ultimate Gold® scintillation cocktail was purchased from Packard (Meriden, Conn.) and liquid scintillation counting was performed by a Packard TriCarb Model 1900 TR liquid scintillation analyzer. A custom built AC waveform generator power supply (EM-Tech Electronics, Lindon Utah) was used as the permeabilzation power supply for skin studies. The DC driving force for the skin studies was a 9 V battery (Duracell) combined with a fixed resistor. For scleral studies, there was no permeabilization source needed and all iontophoresis was conducted using a Phoresor PM-800 (Iomed, Inc., Salt Lake City, Utah). Human epidermal membrane was obtained from licensed sources and experiments were conducted under local IRB approval. Scleral tissue was obtained from freshly euthanized rabbit cadavers under local IACUC approval. All water was >18 MΩ prepared by the Milli-Q process. Ionac® MA-3475 (Sybron Chemical, Inc., Birmingham, N.J.) was pre-loaded with sodium salicylate by vigorously stirring the membranes in a 0.15 M sodium salicylate solution spiked with the radiolabel. Loading was considered complete when the DPM counts in the loading solution varied by less than 10% over a 12 hour period. The MA-3475 membranes were assembled in a group of five membranes and placed in the diffusion cell setup.
# Permeabilized skin transport experiments were conducted using a side-by-side type diffusion cell with an open diffusional area of 0.85 Cm^2. The cells were separated by a piece of dermatomed, heat-separated human epidermal membrane with the stratum corneum facing the donor compartment.
# The DC iontophoresis driving electrodes were prepared by dipping a silver foil strip into a 1:1 (w/w) mixture of conductive silver paint and finely ground silver chloride. After dipping, the electrodes were hung and allowed to cure at room temperature overnight. The AC permeabilizing electrodes were made by mechanically drilling holes into a piece of silver foil and electro-coating the perforated silver foil with AgCl by submersion in a saturated KCl solution and passing a 1 mA current for 10 minutes.
# (§2) The receiver compartment was filled with 0.15 M PBS. In each experiment, the donor compartment contained 0.15 M sodium salicylate in water spiked with 25 nCi/ml ^14C-sodium salicylate.
# A 1000 Hz AC potential was applied to decrease and maintain the skin resistance to 2 and 0.5 kΩ and a 9 V battery was connected to a fixed resistor in series to yield a direct current of 0.5 mA. Every 30 minutes, the entire volume of the receiver solution was removed, mixed with scintillation cocktail, and analyzed by liquid scintillation counting. All experiments were conducted at least in duplicate.
# The amount of ^14C-salicylate transported across the membrane was plotted as a function of time. Permeabilities were determined from the following equations: [formula]
# where J is the flux, Q is the amount of solute transported across the membrane, A is the area of the exposed membrane, t is time, P is the permeability, and CD is the concentration of the solute in the donor solution.
# Permeabilities were plotted as a function of time and the slope of the best-fit line to the steady state portion of the curve was determined using regression analysis.
# [2] = rabbit sclera
# Method: as §1
# Scleral transport experiments were conducted using a side-by-side type diffusion cell with an open diffusional area of 0.2 cm^2. The cells were separated by a piece of excised scleral tissue from adult rabbits. The diffusion cells were assembled with the conjunctival side facing the donor compartment.
# The DC iontophoresis driving electrodes were prepared by dipping a silver foil strip into a 1:1 (w/w) mixture of conductive silver paint and finely ground silver chloride. After dipping, the electrodes were hung and allowed to cure at room temperature overnight.
# as §2
# Direct current DC was applied at currents of 0.5, 1, and 2 mA with a Phoresor. Every 30 minutes, the entire volume of the receiver solution was removed, mixed with scintillation cocktail, and analyzed by liquid scintillation counting. All experiments were conducted in triplicate.
# The amount of ^14C-salicylate transported across the membrane was plotted as a function of time. Permeabilities were determined from the equations (8) and (9) and plotted and analyzed as in Example 1.
smiles,measurement,setting,value
"O=C([O-])c1ccccc1O.[Na+] [Salicylate, sodium salicylate]",Transference number,"[1]; AC + DC, 0.5 kΩ, PSM +",0.32 ± 0.03
same,Transference number,"[1]; AC + DC, 0.5 kΩ, PSM none",0.12 ± 0.01
same,Transference number,"[1]; AC + DC, 2 kΩ, PSM +",0.16 ± 0.03
same,Transference number,"[1]; AC + DC, 2 kΩ, PSM none",0.12 ± 0.01
same,Transference number,"[1]; DC only, PSM +",0.18 ± 0.03
same,Transference number,"[1]; DC only, PSM none",0.13 ± 0.01
same,increase in current carried by the drug due to permselective membrane,"[1]; AC permeabilization, target resistance 2 kΩ",about 30%
same,current carried by the drug,"[1]; AC permeabilization, target resistance 2 kΩ, no permselective membrane",12%
same,current carried by the drug,"[1]; AC permeabilization, target resistance 2 kΩ, permselective membrane present",16%
same,gain in current carried by the drug due to permselective material,[1]; purely DC iontophoresis,about 40%
same,current carried by the drug,"[1]; purely DC iontophoresis, permselective material present",18%
same,current carried by the drug,"[1]; purely DC iontophoresis, without permselective material",13%
same,increase in electrical transference efficiency due to permselective membrane,[1]; target resistance 0.5 kΩ,~300%
same,electrical transference efficiency,"[1]; target resistance 0.5 kΩ, with permselective membrane",32%
same,electrical transference efficiency,"[1]; target resistance 0.5 kΩ, without permselective membrane",12%
same,increase of transference number by the permselective membrane,[2],between two- and three-fold
same,Salicylate Flux,"[2]; DC 0.4 mA, PSM +",21 ± 0.3 µg/min
same,Transference number,"[2]; DC 0.4 mA, PSM +",0.675 ± 0.073
same,Salicylate Flux,"[2]; DC 0.4 mA, PSM none",13 ± 0.1 µg/min
same,Transference number,"[2]; DC 0.4 mA, PSM none",0.385 ± 0.007
same,Salicylate Flux,"[2]; DC 1.0 mA, PSM +",48 ± 1.0 µg/min
same,Transference number,"[2]; DC 1.0 mA, PSM +",0.563 ± 0.013
same,Salicylate Flux,"[2]; DC 1.0 mA, PSM none",21 ± 0.2 µg/min
same,Transference number,"[2]; DC 1.0 mA, PSM none",0.235 ± 0.007
same,Salicylate Flux,"[2]; DC 2.0 mA, PSM +",109 ± 7.0 µg/min
same,Transference number,"[2]; DC 2.0 mA, PSM +",0.650 ± 0.048
same,Salicylate Flux,"[2]; DC 2.0 mA, PSM none",36 ± 2.0 µg/min
same,Transference number,"[2]; DC 2.0 mA, PSM none",0.210 ± 0.014
same,enhancement of salicylate flux by the permselective membrane,[2]; depending on current level,two- to three-fold
same,current carried by the drug,[2]; with permselective membrane,approximately 65%
